Results as given in US20080113929A1, “Abasic Oligonucleotide as Carrier Platform for Antigen and Immunostimulatory Agonist and Antagonist” (Coley Pharmaceutical GmbH, priority 2004, published 2008).

Experiments:
murine TLR9 = biological target: T1, murine TLR9 (Mus musculus, UniProt Q9EQU3); assay: TLR9 signaling induction, NFκB-luciferase reporter in HEK 293 cells stably transfected with murine TLR9; type: cell-based; conditions: 16 h, HEK 293 murine TLR9 NFκB-luciferase
T1 construct: expressed in transfected cells; host or cells: HEK 293 cells, stably transfected, also carrying a six-fold NFκB-luciferase reporter plasmid
T1 sequence (Q9EQU3 26-1032): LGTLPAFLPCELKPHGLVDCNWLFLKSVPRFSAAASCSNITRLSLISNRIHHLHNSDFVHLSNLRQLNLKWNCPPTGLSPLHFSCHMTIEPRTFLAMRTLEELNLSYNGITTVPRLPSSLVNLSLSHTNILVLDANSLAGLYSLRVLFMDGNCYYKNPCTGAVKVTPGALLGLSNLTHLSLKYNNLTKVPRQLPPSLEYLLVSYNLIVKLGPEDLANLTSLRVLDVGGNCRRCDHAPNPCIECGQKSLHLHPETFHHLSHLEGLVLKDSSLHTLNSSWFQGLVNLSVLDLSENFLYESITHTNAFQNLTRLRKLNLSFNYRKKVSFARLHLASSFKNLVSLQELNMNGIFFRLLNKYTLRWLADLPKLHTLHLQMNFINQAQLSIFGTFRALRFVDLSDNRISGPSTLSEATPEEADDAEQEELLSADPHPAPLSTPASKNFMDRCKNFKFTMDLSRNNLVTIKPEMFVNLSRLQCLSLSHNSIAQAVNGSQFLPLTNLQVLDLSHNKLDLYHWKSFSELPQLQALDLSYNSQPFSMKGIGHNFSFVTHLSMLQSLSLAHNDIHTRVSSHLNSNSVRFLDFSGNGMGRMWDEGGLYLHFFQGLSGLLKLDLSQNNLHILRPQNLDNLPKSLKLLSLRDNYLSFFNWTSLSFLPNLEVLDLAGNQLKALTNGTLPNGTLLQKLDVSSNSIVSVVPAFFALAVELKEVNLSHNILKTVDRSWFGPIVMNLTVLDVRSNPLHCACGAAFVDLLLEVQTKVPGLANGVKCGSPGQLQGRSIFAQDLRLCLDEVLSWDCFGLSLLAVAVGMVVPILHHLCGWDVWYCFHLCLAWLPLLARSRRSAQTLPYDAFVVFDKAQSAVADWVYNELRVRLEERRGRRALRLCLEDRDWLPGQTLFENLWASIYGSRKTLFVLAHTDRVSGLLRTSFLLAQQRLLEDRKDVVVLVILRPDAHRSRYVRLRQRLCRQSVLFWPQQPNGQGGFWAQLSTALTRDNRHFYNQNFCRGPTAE
Procedure: FIG. 2 is a graph depicting fold induction of TLR9 signaling in vitro, as measured using 293 cells stably transformed with murine TLR9 and a NF-κB-luciferase reporter construct, following 16 hour incubation with indicated concentrations of hexamer CpG motif GACGTT alone (20321), CpG motif GACGTT in the context of a 20-mer CpG-ODN(ODN 5890; SEQ ID NO:5), or CpG motif GACGTT in the context of flanking abasic sequences in 20-mer 20307 (poly-D) or in 20-mer 20566 (poly-C3 spacer). EC50 values are shown in the graph legend.
Following published methods, HEK 293 cells were stably transfected with a murine TLR9 expression vector and a six-fold NFκB-luciferase reporter plasmid. Cells were plated on 96-well plates at 1.5×10^4 cells/well and allowed to attach overnight. The cells were then treated for sixteen hours with individual test compounds listed below at concentrations ranging between 10^−9 M and 10^−5 M.
Test agents were as follows: ODN 20321 (GACGTT); ODN 5890 (SEQ ID NO:5); 20307 ([…], where each D represents an abasic deoxyribonucleotide unit); and 20566 (JJJJJGACGTTJJJJJJJJJ, where each J represents a C3 spacer derived from propane-1,3-diol).
Each data point was done in duplicate. After 16 h stimulation the supernatant was removed and the cells were treated with lysis buffer and stored at −80° C. until luciferase measurement. Values are given as fold NFκB activation compared with non-stimulated cells.

[1] = test system: RAW 264.7 murine macrophage cell line; assay: In vitro uptake of Cy3-labeled oligomers by RAW 264.7 cells (FACS mean fluorescence); type: cell-based; conditions: Cy3-labeled 20-mer, 0.5 to 5.0 μM, 1 hr at 37° C.
Procedure: FIG. 1 is a bar graph depicting uptake by RAW 264.7 cells of Cy3-labeled 20-mer abasic oligonucleotides (poly-D or poly-C3) and of 20-mer ODN 5890 (SEQ ID NO:5). No data is shown for poly-C3 at 4.0 or 5.0 μM.
The 20-mer ODN 5890 ([…]; SEQ ID NO:5), a 20-mer poly-abasic (i.e., poly-D) or a 20-mer poly-C3 were synthesized with a fluorescence tag Cy3. The murine macrophage cell line, RAW 264.7 (American Type Culture Collection, Manassas, Va.), was incubated with various concentrations of test oligomer (0.5 to 5.0 μM) for 1 hr at 37° C. The cells were then washed and FACS analyzed for oligomer uptake by monitoring mean fluorescence. […] No data is shown for poly-C3 at concentrations of 4.0 or 5.0 μM.

| Sequence | TLR9 signaling compared with hexamer CpG motif alone (20321), in words (murine TLR9) | oligomer uptake (comparison in words) [1] |
| --- | --- | --- |
| JJJJJGACGTTJJJJJJJJJ [compound 20566] | induced significantly more TLR9 signaling | – |
| DDDDDGACGTTDDDDDDDDD [compound 20307] | induced significantly more TLR9 signaling | – |
| TCCATGACGTTTTTGATGTT (Cy3 fluorescent tag attached, position not given here) [ODN 5890, Cy3-tagged in the uptake test] | induced significantly more TLR9 signaling | up taken to a greater extent than either abasic oligonucleotide |
